Experimental data from patent publication US9132130B2, “Purine derivative and antitumor agent using same” (ZENYAKU KOGYO KABUSHIKI KAISHA, priority 2009, dated 2015).

Experiments:
Assay type in all cases: cell-based
[1] = test system: B16F10 cells (mouse melanoma [malignant melanoma] cells); assay: in vitro antitumor activity test, B16F10 cells, XTT colorimetry; settings: B16-F10, cultured 72 hours
Procedure: (§1) WiDr cells (human colon cancer cells) subcultured in a culture medium composed of a MEM medium added with 10% fetal bovine serum, 25 mM HEPES and 0.1 mg/ml kanamycin under the conditions of 37° C. and 5% carbon dioxide gas were made into single floating cells by treating with trypsin/EDTA, and a single cell suspension of 3×10^4 cells per 1 ml was prepared using the MEM medium (added with 10% fetal bovine serum, 25 mM HEPES and 0.1 mg/ml kanamycin). After dissolving the test compounds in DMSO, they were diluted in a RPMI 1640 medium (added with 10% fetal bovine serum, 25 mM HEPES and 0.1 mg/ml kanamycin) and prepared so that the concentrations were 2.0×10^−9 to 2.0×10^−4 M.
(§2) 0.1 ml of the cell suspension was placed into each well of 96-well microplates, cultured for 24 hours to allow the cells to adhere to the microplates, then 0.1 ml of the sample solutions were added, and cultured for 72 hours at 37° C. in 5% carbon dioxide gas.
(§3) Afterwards, the level of growth inhibition at various sample concentrations was obtained using XTT colorimetry, and concentrations at which growth was inhibited by 50% (GI50 values [μM]) were calculated.
(§4) In addition, cells other than WiDr cells that were used, and the condition for preparing each single cell suspension were as follows.
B16F10 cells (mouse melanoma [malignant melanoma] cells): 1×10^4 cells/ml

[2] = test system: A549 cells (human lung cancer cells); assay: in vitro antitumor activity test, A549 cells, XTT colorimetry; settings: cultured 72 hours
Procedure: as §1, §2, §3, §4
A549 cells (human lung cancer cells): 2×10^4 cells/ml

[3] = test system: PC-3 cells (human prostate cancer cells); assay: in vitro antitumor activity test, PC-3 cells, XTT colorimetry; settings: PC-3 human prostate cancer cells, cultured 72 hours
Procedure: as §1, §2, §3, §4
PC-3 cells (human prostate cancer cells): 2×10^4 cells/ml

[4] = test system: WiDr cells (human colon cancer cells); assay: in vitro antitumor activity test, WiDr cells, XTT colorimetry; settings: cultured 72 hours
Procedure: as §1, §2, §3

[5] = test system: P388 cells (mouse leukemia cells); assay: in vitro antitumor activity test, P388 cells, XTT colorimetry; settings: cultured 72 hours
Procedure: P388 cells (mouse leukemia cells) passaged in the abdominal cavity of DBA/2 mice were extracted with ascitic fluid, and cultured in a RPMI 1640 medium (added with 10% fetal bovine serum, 25 mM HEPES, 0.1 mg/ml kanamycin and 5 μM 2-hydroxyethyldisulfide) at 37° C. in 5% carbon dioxide gas. After culturing for 16 hours, floating P388 cells were made into a single cell suspension of 4×10^4 cells per 1 ml using the same RPMI 1640 medium as given above. The test substances were dissolved in DMSO, then diluted in a RPMI 1640 medium (added with 10% fetal bovine serum, 25 mM HEPES and 0.1 mg/ml kanamycin) and prepared so that the concentrations were 2.0×10^−9 to 2.0×10^−4 M.
0.1 ml of the cell suspension was placed into each well of 96-well microplates, then 0.1 ml of the sample solutions were added, and cultured for 72 hours at 37° C. in 5% carbon dioxide gas.
as §3

CCc1nc2c(N3CCOCC3)nc(SCc3ccc(OC)c(F)c3)nc2n1CC [Compound 123, 8,9-diethyl-2-(3-fluoro-4-methoxybenzylsulfanyl)-6-morpholino-9H-purine]
GI50 [1]: 0.37 µM | GI50 [2]: 0.42 µM | GI50 [3]: 0.24 µM | GI50 [4]: 0.2 µM | GI50 [5]: 0.13 µM

CCc1nc2c(N3CCOCC3)nc(SCc3ccc(OC)c(NC(=O)c4ccco4)c3)nc2n1C [Compound 55, 8-ethyl-2-[3-(2-furylcarbonylamino)-4-methoxybenzylsulfanyl]-9-methyl-6-morpholino-9H-purine]
GI50 [1]: 1.39 µM | GI50 [2]: 1.34 µM | GI50 [3]: 0.78 µM | GI50 [4]: 1.39 µM | GI50 [5]: 1.05 µM

CCc1nc2c(N3CCOCC3)nc(SCc3ccc(I)cc3)nc2n1C [Compound 49, 8-ethyl-2-(4-iodobenzylsulfanyl)-9-methyl-6-morpholino-9H-purine]
GI50 [1]: 1.34 µM | GI50 [2]: 0.32 µM | GI50 [3]: 0.46 µM | GI50 [4]: 0.39 µM | GI50 [5]: 0.29 µM

COc1ccc(CSc2nc(-n3cccc3)c3ncn(C)c3n2)cc1N [Compound 141, 2-(3-amino-4-methoxybenzylsulfanyl)-9-methyl-6-(1-pyrrolyl)-9H-purine]
GI50 [1]: 0.41 µM | GI50 [2]: 0.37 µM | GI50 [3]: 0.47 µM | GI50 [4]: 4.85 µM | GI50 [5]: 0.26 µM

C=Cc1nc(SCc2ccc(OC)cc2)nc2c1ncn2C [Compound 165, 2-(4-methoxybenzylsulfanyl)-9-methyl-6-vinyl-9H-purine]
GI50 [1]: 0.98 µM | GI50 [2]: 3.3 µM | GI50 [3]: 3.2 µM | GI50 [4]: 4.1 µM | GI50 [5]: 0.26 µM

CCOc1ccc(CSc2nc(N3CCOCC3)c3nc(CC)n(C)c3n2)cc1 [Compound 17, 2-(4-ethoxybenzylsulfanyl)-8-ethyl-9-methyl-6-morpholino-9H-purine]
GI50 [1]: 1.29 µM | GI50 [2]: 0.76 µM | GI50 [3]: 0.46 µM | GI50 [4]: 0.51 µM | GI50 [5]: 0.36 µM

COc1ccc(CSc2nc(-c3ccc([N+](=O)[O-])cc3)c3ncn(C)c3n2)cc1 [Compound 166, 2-(4-methoxybenzylsulfanyl)-9-methyl-6-(4-nitrophenyl)-9H-purine]
GI50 [1]: 1.55 µM | GI50 [2]: 0.67 µM | GI50 [3]: 1.39 µM | GI50 [4]: 0.82 µM | GI50 [5]: 0.28 µM

CCc1nc2c(N3CCOCC3)nc(SCc3ccc(OC)c(C#N)c3)nc2n1CC [Compound 94, 2-(3-cyano-4-methoxybenzylsulfanyl)-8,9-diethyl-6-morpholino-9H-purine]
GI50 [1]: 0.14 µM | GI50 [2]: 0.1 µM | GI50 [3]: 0.11 µM | GI50 [4]: 0.08 µM | GI50 [5]: 0.08 µM

COc1ccc(CSc2nc(N(C)C(C)=O)c3ncn(C)c3n2)cc1 [Compound 61, 6-(N-acetyl-N-methylamino)-2-(4-methoxybenzylsulfanyl)-9-methyl-9H-purine]
GI50 [1]: 0.84 µM | GI50 [2]: 0.52 µM | GI50 [3]: 0.89 µM | GI50 [4]: 0.46 µM | GI50 [5]: 0.33 µM

C=Cc1ccc(CSc2nc(N3CCOCC3)c3nc(CC)n(C)c3n2)cc1 [Compound 10, 8-ethyl-9-methyl-6-morpholino-2-(4-vinylbenzylsulfanyl)-9H-purine]
GI50 [1]: 1.82 µM | GI50 [2]: 1.69 µM | GI50 [3]: 0.89 µM | GI50 [4]: 1.25 µM | GI50 [5]: 1.28 µM

CCNc1nc(SCc2ccc(OC)c(C#N)c2)nc2c1ncn2C [Compound 89, 2-(3-cyano-4-methoxybenzylsulfanyl)-6-ethylamino-9-methyl-9H-purine]
GI50 [1]: 0.13 µM | GI50 [2]: 0.15 µM | GI50 [3]: 0.21 µM | GI50 [4]: 0.12 µM | GI50 [5]: 0.11 µM

CCc1nc2c(N3CCOCC3)nc(SCc3ccc(OC)c(N)c3)nc2n1CC [Compound 97, 2-(3-amino-4-methoxybenzylsulfanyl)-8,9-diethyl-6-morpholino-9H-purine]
GI50 [1]: 0.29 µM | GI50 [2]: 0.14 µM | GI50 [3]: 0.12 µM | GI50 [4]: 0.3 µM | GI50 [5]: 0.09 µM

C/C=C/c1nc(SCc2ccc(OC)c([N+](=O)[O-])c2)nc2c1ncn2C [Compound 171, 2-(4-methoxy-3-nitrobenzylsulfanyl)-9-methyl-6-(1-trans-propenyl)-9H-purine]
GI50 [1]: 0.56 µM | GI50 [2]: 0.27 µM | GI50 [3]: 0.47 µM | GI50 [4]: 0.37 µM | GI50 [5]: 0.22 µM

COc1ccc(CSc2nc(N3C=COCC3)c3ncn(C)c3n2)cc1C#N [Compound 153, 2-(3-cyano-4-methoxybenzylsulfanyl)-6-(2,3-dihydro-[1,4]oxadin-4-yl)-9-methyl-9H-purine]
GI50 [1]: < 0.04 µM | GI50 [2]: < 0.04 µM | GI50 [3]: < 0.04 µM | GI50 [4]: < 0.04 µM | GI50 [5]: < 0.04 µM

CCc1nc2c(N(C)C)nc(SCc3ccc(OC)c(C#N)c3)nc2n1C [Compound 69, 2-(3-cyano-4-methoxybenzylsulfanyl)-6-dimethylamino-8-ethyl-9-methyl-9H-purine]
GI50 [1]: 0.2 µM | GI50 [2]: 0.15 µM | GI50 [3]: 0.12 µM | GI50 [4]: 0.15 µM | GI50 [5]: 0.11 µM

CCc1nc2c(N3C=COCC3)nc(SCc3ccc(OC)cc3)nc2n1CC [Compound 158, 8,9-diethyl-6-(2,3-dihydro-[1,4]oxadin-4-yl)-2-(4-methoxybenzylsulfanyl)-9H-purine]
GI50 [1]: 0.42 µM | GI50 [2]: 0.41 µM | GI50 [3]: 0.31 µM | GI50 [4]: 0.35 µM | GI50 [5]: 0.24 µM

CCc1nc2c(N3CCOCC3)nc(SCc3ccc(C)c(F)c3)nc2n1C [Compound 11, 8-ethyl-2-(3-fluoro-4-methylbenzylsulfanyl)-9-methyl-6-morpholino-9H-purine]
GI50 [1]: 1.49 µM | GI50 [2]: 1.16 µM | GI50 [3]: 0.4 µM | GI50 [4]: 1.04 µM | GI50 [5]: 0.67 µM

CCc1nc2c(N3CCOCC3)nc(SCc3ccc(OC)cc3)nc2n1C [Compound 1, 8-ethyl-2-(4-methoxybenzylsulfanyl)-9-methyl-6-morpholino-9H-purine]
GI50 [1]: 0.41 µM | GI50 [2]: 0.56 µM | GI50 [3]: 0.28 µM | GI50 [4]: 0.35 µM | GI50 [5]: 0.29 µM

CCn1cnc2c(N3C=COCC3)nc(SCc3ccc(OC)c(N)c3)nc21 [Compound 151, 2-(3-amino-4-methoxybenzylsulfanyl)-6-(2,3-dihydro-[1,4]oxadin-4-yl)-9-ethyl-9H-purine]
GI50 [1]: 1.47 µM | GI50 [2]: 0.7 µM | GI50 [3]: 1.44 µM | GI50 [4]: 3.4 µM | GI50 [5]: 0.57 µM

CCOc1ccc(CSc2nc(N(C)C)c3ncn(C)c3n2)cc1N [Compound 140, 2-(3-amino-4-ethoxybenzylsulfanyl)-6-dimethylamino-9-methyl-9H-purine]
GI50 [1]: 0.16 µM | GI50 [2]: 0.09 µM | GI50 [3]: 0.11 µM | GI50 [4]: 0.36 µM | GI50 [5]: 0.05 µM

CCN(C)c1nc(SCc2ccc(OC)c(N)c2)nc2c1ncn2C [Compound 84, 2-(3-amino-4-methoxybenzylsulfanyl)-6-(N-ethyl-N-methylamino)-9-methyl-9H-purine]
GI50 [1]: 0.51 µM | GI50 [2]: 0.55 µM | GI50 [3]: 0.98 µM | GI50 [4]: 1.9 µM | GI50 [5]: 0.26 µM

COc1ccc(CSc2nc(N3C=COCC3)c3ncn(C)c3n2)cc1 [Compound 147, 6-(2,3-dihydro-[1,4]oxadin-4-yl)-2-(4-methoxybenzylsulfanyl)-9-methyl-9H-purine]
GI50 [1]: 0.08 µM | GI50 [2]: 0.05 µM | GI50 [3]: 0.12 µM | GI50 [4]: 0.04 µM | GI50 [5]: 0.04 µM

CCn1c(C)nc2c(N3CCOCC3)nc(SCc3ccc(OC)cc3)nc21 [Compound 102, 9-ethyl-2-(4-methoxybenzylsulfanyl)-8-methyl-6-morpholino-9H-purine]
GI50 [1]: 1.42 µM | GI50 [2]: 0.83 µM | GI50 [3]: 0.83 µM | GI50 [4]: 0.92 µM | GI50 [5]: 0.72 µM

COc1ccc(CSc2nc(N(C)C)c3ncn(C)c3n2)cc1C#N [Compound 87, 2-(3-cyano-4-methoxybenzylsulfanyl)-6-dimethylamino-9-methyl-9H-purine]
GI50 [1]: 0.08 µM | GI50 [2]: 0.05 µM | GI50 [3]: 0.04 µM | GI50 [4]: 0.04 µM | GI50 [5]: 0.02 µM

CCn1cnc2c(N3C=COCC3)nc(SCc3ccc(OC)c(F)c3)nc21 [Compound 154, 6-(2,3-dihydro-[1,4]oxadin-4-yl)-9-ethyl-2-(3-fluoro-4-methoxybenzylsulfanyl)-9H-purine]
GI50 [1]: 0.37 µM | GI50 [2]: 0.1 µM | GI50 [3]: 0.22 µM | GI50 [4]: 0.17 µM | GI50 [5]: 0.09 µM
